Test results: patent publication US12421191B2, “3-hydroxyoxindole derivatives as CRHR2 antagonist” (RaQualia Pharma Inc., priority 2020, dated 2025)

biological target: T1, human CRHR2-alpha (Homo sapiens, UniProt Q13324); test: cAMP functional assay for human CRHR2 (LANCE Ultra TR-FRET); type: cell-based; conditions: inhibition of cAMP production in CHO-K1 cells stably expressing human CRHR2-alpha, EC90 of human urocortin2 as agonist; read-out: IC50 against CRHR2
T1 construct: host or cells: CHO-K1
T1 sequence (Q13324 1-411): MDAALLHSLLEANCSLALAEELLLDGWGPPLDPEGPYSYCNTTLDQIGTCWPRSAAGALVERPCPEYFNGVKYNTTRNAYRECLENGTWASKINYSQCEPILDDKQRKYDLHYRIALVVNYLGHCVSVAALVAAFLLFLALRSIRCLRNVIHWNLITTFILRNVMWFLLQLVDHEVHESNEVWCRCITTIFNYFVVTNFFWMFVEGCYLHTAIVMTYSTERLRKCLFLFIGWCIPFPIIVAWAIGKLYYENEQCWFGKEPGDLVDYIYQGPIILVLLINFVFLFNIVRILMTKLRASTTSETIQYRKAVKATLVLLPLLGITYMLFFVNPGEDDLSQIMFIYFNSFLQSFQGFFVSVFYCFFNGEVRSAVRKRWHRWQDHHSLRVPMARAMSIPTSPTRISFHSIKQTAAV
Experimental: cAMP functional assay for human CRHR2 The ability of the compounds of this invention to inhibit either CRHR2 is assessed by 3′,5′-cyclic adenosine monophosphate (cAMP) production in cells using the LANCE Ultra cAMP assay kit (ParkinElmer), which are designed based on the homogeneous time-resolved fluorescence resonance energy transfer (TR-FRET) immunoassay.
CHO-K1 (Chinese hamster ovary) cells stably expressing human CRHR2-alpha (DiscoveRX, Cat. 95-0048C2) are grown in HAM's F12 media supplemented with 10% fetal bovine serum (FBS), 100 units/mL penicillin G, 100 microg/mL hygromycin and 0.5 microg/mL geneticin at 37° C. in 5% CO2 humidified incubator to 80% confluence. After 7 hours starvation treatment in culture media containing 0.1% FBS, the cells are washed with Hanks balanced salt solution (HBSS) and cryopreserved.
For cAMP assay, frozen cells are thawed and washed with HBSS, followed by resuspending cells in assay buffer (HBSS containing 0.1% bovine serum albumin, 0.5 mM isobutylmethylxanthine and 5 mM Hepes, pH 7.4) at the appropriate concentration for the assay. The cell suspensions are plated on 384-well microplates (Greiner Bio-One) at a density of 4,000 cells per well. After preincubating the cells with various concentrations of the compounds for 30 min at 25° C., an assay buffer containing EC90 concentration of agonist is added and the cells are incubated for 30 min at 25° C. Human urocortin2 (Peptide Institute) is used as agonists for CRHR2. For the termination of assay, europium-labeled cAMP tracer and ULight (registered trademark) dye labeled cAMP antibodies, both prepared with Lance-Ultra cAMP detection reagent (PerkinElmer) are added in the plate and incubate for 60 min at 25° C. After incubation, TR-FRET signal is detected by EnVision plate reader (PerkinElmer). The IC50 values for compounds are calculated from dose-response curves by fitting the percent inhibition using XLfit (ID Business Solutions).

**Q.** How did the IC50 turn out when `O=C(N[C@H]1CC[C@H](CN2C(=O)C(O)(c3cccc(Cl)c3)c3ccccc32)CC1)c1cc(Cl)cnc1C(F)F` (some centres unmarked) [Example 48, 5-chloro-N-((1r,4r)-4-((3-(3-chlorophenyl)-3-hydroxy-2-oxoindolin-1-yl)methyl)cyclohexyl)-2-(difluoromethyl)nicotinamide] was run?
**A.** < 200 nM

**Q.** `O=C(N[C@H]1CC[C@H](CN2C(=O)C(O)(c3ccncc3F)c3ccc(F)cc32)CC1)c1cc(Cl)cnc1C(F)F` (some centres unmarked) [Example 85, 5-chloro-2-(difluoromethyl)-N-((1r,4r)-4-((6-fluoro-3-(3-fluoropyridin-4-yl)-3-hydroxy-2-oxoindolin-1-yl)methyl)cyclohexyl) nicotinamide] was tested. Which IC50 did it give?
**A.** < 200 nM

**Q.** `COc1ccc(F)c(C2(O)C(=O)N(C[C@H]3CC[C@H](NC(=O)c4cc(Cl)cnc4C)CC3)c3ccccc32)c1` (some centres unmarked) [Example 128, 5-chloro-N-((1r,4r)-4-((3-(2-fluoro-5-methoxyphenyl)-3-hydroxy-2-oxoindolin-1-yl)methyl)cyclohexyl)-2-methylnicotinamide] was tested. Which IC50 did it give?
**A.** < 200 nM

**Q.** `Cc1cc(C2(O)C(=O)N(C[C@H]3CC[C@H](NC(=O)c4cc(Cl)cnc4C(F)F)CC3)c3ccccc32)cs1` (some centres unmarked) [Example 130, 5-chloro-2-(difluoromethyl)-N-((1r,4r)-4-((3-hydroxy-3-(5-methylthiophen-3-yl)-2-oxoindolin-1-yl)methyl)cyclohexyl) nicotinamide] was tested. Which IC50 did it give?
**A.** < 200 nM

**Q.** For `O=C(N[C@H]1CC[C@H](CN2C(=O)C(O)(c3ccccc3F)c3c(F)cc(F)cc32)CC1)c1cc(Cl)cnc1C(F)F` (some centres unmarked) [Example 177, 5-chloro-N-((1r,4r)-4-((4,6-difluoro-3-(2-fluorophenyl)-3-hydroxy-2-oxoindolin-1-yl)methyl)cyclohexyl)-2-(difluoromethyl)nicotinamide], which IC50 is on record?
**A.** < 200 nM

**Q.** Which IC50 does the source give for `COc1ccc(F)c(C2(O)C(=O)N(C[C@H]3CC[C@H](NC(=O)c4cc(Cl)cnc4C(F)F)CC3)c3ccccc32)c1` (some centres unmarked) [Example 74, 5-chloro-2-(difluoromethyl)-N-((1r,4r)-4-((3-(2-fluoro-5-methoxyphenyl)-3-hydroxy-2-oxoindolin-1-yl)methyl)cyclohexyl) nicotinamide] here?
**A.** < 200 nM

**Q.** How did the IC50 turn out when `O=C(N[C@H]1CC[C@H](CN2C(=O)C(O)(c3cccc(Cl)c3F)c3ccc(F)cc32)CC1)c1cc(Cl)cnc1C(F)F` (some centres unmarked) [Example 117, 5-chloro-N-((1r,4r)-4-((3-(3-chloro-2-fluorophenyl)-6-fluoro-3-hydroxy-2-oxoindolin-1-yl)methyl)cyclohexyl)-2-(difluoromethyl)nicotinamide] was run?
**A.** < 200 nM

**Q.** With `O=C(N[C@H]1CC[C@H](CN2C(=O)C(O)(c3cccc(F)c3F)c3c(F)cccc32)CC1)c1cc(Cl)cnc1C(F)F` (some centres unmarked) [Example 192, 5-chloro-2-(difluoromethyl)-N-((1r,4r)-4-((3-(2,3-difluorophenyl)-4-fluoro-3-hydroxy-2-oxoindolin-1-yl)methyl)cyclohexyl) nicotinamide] as the compound, how does the IC50 read?
**A.** < 200 nM

**Q.** How did the IC50 turn out when `O=C(N[C@H]1CC[C@H](CN2C(=O)C(O)(c3ccc(Cl)cn3)c3ccccc32)CC1)c1cc(Cl)cnc1C(F)F` (some centres unmarked) [Example 13, 5-chloro-N-((1r,4r)-4-((3-(5-chloropyridin-2-yl)-3-hydroxy-2-oxoindolin-1-yl)methyl)cyclohexyl)-2-(difluoromethyl)nicotinamide] was run?
**A.** < 200 nM

**Q.** `O=C(N[C@H]1CC[C@H](CN2C(=O)C(O)(c3cccc(F)c3F)c3ccccc32)CC1)c1cc(Cl)cnc1C(F)F` (some centres unmarked) [Example 40, 5-chloro-2-(difluoromethyl)-N-((1r,4r)-4-((3-(2,3-difluorophenyl)-3-hydroxy-2-oxoindolin-1-yl)methyl)cyclohexyl) nicotinamide] was tested. Which IC50 did it give?
**A.** < 200 nM

**Q.** Which IC50 does the source give for `COc1cccc(C2(O)C(=O)N(C[C@H]3CC[C@H](NC(=O)c4cc(Cl)cnc4C(F)F)CC3)c3ccccc32)c1` (some centres unmarked) [Example 47, 5-chloro-2-(difluoromethyl)-N-((1r,4r)-4-((3-hydroxy-3-(3-methoxyphenyl)-2-oxoindolin-1-yl)methyl)cyclohexyl) nicotinamide] here?
**A.** < 200 nM

**Q.** With `COc1ccc(F)c(C2(O)C(=O)N(C[C@H]3CC[C@H](NC(=O)c4cc(Cl)cnc4C(F)F)CC3)c3cccc(F)c32)c1` (some centres unmarked) [Example 189, 5-chloro-2-(difluoromethyl)-N-((1r,4r)-4-((4-fluoro-3-(2-fluoro-5-methoxyphenyl)-3-hydroxy-2-oxoindolin-1-yl)methyl)cyclohexyl) nicotinamide] as the compound, how does the IC50 read?
**A.** < 200 nM

**Q.** With `O=C(N[C@H]1CC[C@H](CN2C(=O)C(O)(c3ccc(F)cn3)c3ccccc32)CC1)c1cc(Cl)cnc1C(F)F` (some centres unmarked) [Example 18, 5-chloro-2-(difluoromethyl)-N-((1r,4r)-4-((3-(5-fluoropyridin-2-yl)-3-hydroxy-2-oxoindolin-1-yl)methyl)cyclohexyl) nicotinamide] as the compound, how does the IC50 read?
**A.** < 200 nM

**Q.** Which IC50 does the source give for `O=C(N[C@H]1CC[C@H](CN2C(=O)C(O)(c3ccc(Cl)cn3)c3c(F)cccc32)CC1)c1cc(Cl)cnc1C(F)F` (some centres unmarked) [Example 140, 5-chloro-N-((1r,4r)-4-((3-(5-chloropyridin-2-yl)-4-fluoro-3-hydroxy-2-oxoindolin-1-yl)methyl)cyclohexyl)-2-(difluoromethyl)nicotinamide] here?
**A.** < 200 nM

**Q.** `O=C(N[C@H]1CC[C@H](CN2C(=O)C(O)(c3ccc(Cl)cn3)c3cc(F)ccc32)CC1)c1cc(Cl)cnc1C(F)F` (some centres unmarked) [Example 125, 5-chloro-N-((1r,4r)-4-((3-(5-chloropyridin-2-yl)-5-fluoro-3-hydroxy-2-oxoindolin-1-yl)methyl)cyclohexyl)-2-(difluoromethyl)nicotinamide] was tested. Which IC50 did it give?
**A.** < 200 nM

**Q.** With `O=C(N[C@H]1CC[C@H](CN2C(=O)C(O)(c3ccccc3F)c3cc(F)ccc32)CC1)c1cc(Cl)cnc1C(F)F` (some centres unmarked) [Example 93, 5-chloro-2-(difluoromethyl)-N-((1r,4r)-4-((5-fluoro-3-(2-fluorophenyl)-3-hydroxy-2-oxoindolin-1-yl)methyl)cyclohexyl) nicotinamide] as the compound, how does the IC50 read?
**A.** < 200 nM

**Q.** Which IC50 does the source give for `COc1cc(C2(O)C(=O)N(C[C@H]3CC[C@H](NC(=O)c4cc(Cl)cnc4C(F)F)CC3)c3ccc(F)cc32)c(F)cn1` (some centres unmarked) [Example 124, 5-chloro-2-(difluoromethyl)-N-((1r,4r)-4-((5-fluoro-3-(5-fluoro-2-methoxypyridin-4-yl)-3-hydroxy-2-oxoindolin-1-yl)methyl)cyclohexyl) nicotinamide] here?
**A.** < 200 nM

**Q.** Which IC50 does the source give for `O=C(N[C@H]1CC[C@H](CN2C(=O)C(O)(c3cccc(F)c3F)c3ccc(F)cc32)CC1)c1cc(Cl)cnc1C(F)F` (some centres unmarked) [Example 116, 5-chloro-2-(difluoromethyl)-N-((1r,4r)-4-((3-(2,3-difluorophenyl)-6-fluoro-3-hydroxy-2-oxoindolin-1-yl)methyl)cyclohexyl) nicotinamide] here?
**A.** < 200 nM

**Q.** `O=C(N[C@H]1CC[C@H](CN2C(=O)C(O)(c3ccc(F)cc3)c3ccccc32)CC1)c1cc(Cl)cnc1C(F)F` (some centres unmarked) [Example 17, 5-chloro-2-(difluoromethyl)-N-((1r,4r)-4-((3-(4-fluorophenyl)-3-hydroxy-2-oxoindolin-1-yl)methyl)cyclohexyl) nicotinamide] was tested. Which IC50 did it give?
**A.** < 200 nM

**Q.** For `O=C(N[C@H]1CC[C@H](CN2C(=O)C(O)(c3ccccc3)c3ccc(Cl)cc32)CC1)c1cc(Cl)cnc1C(F)F` (some centres unmarked) [Example 30, 5-chloro-N-((1r,4r)-4-((6-chloro-3-hydroxy-2-oxo-3-phenylindolin-1-yl)methyl)cyclohexyl)-2-(difluoromethyl)nicotinamide], which IC50 is on record?
**A.** < 200 nM

**Q.** With `O=C(N[C@H]1CC[C@H](CN2C(=O)C(O)(c3ccccc3F)c3ccc(Cl)cc32)CC1)c1cc(Cl)cnc1C(F)F` (some centres unmarked) [Example 170, 5-chloro-N-((1r,4r)-4-((6-chloro-3-(2-fluorophenyl)-3-hydroxy-2-oxoindolin-1-yl)methyl)cyclohexyl)-2-(difluoromethyl)nicotinamide] as the compound, how does the IC50 read?
**A.** < 200 nM

**Q.** `O=C(N[C@H]1CC[C@H](CN2C(=O)C(O)(c3cccc(F)c3F)c3ccccc32)CC1)c1cc(Cl)cnc1C(F)(F)F` (some centres unmarked) [Example 113, 5-chloro-N-((1r,4r)-4-((3-(2,3-difluorophenyl)-3-hydroxy-2-oxoindolin-1-yl)methyl)cyclohexyl)-2-(trifluoromethyl)nicotinamide] was tested. Which IC50 did it give?
**A.** < 200 nM

**Q.** How did the IC50 turn out when `COc1ccc2c(c1)N(C[C@H]1CC[C@H](NC(=O)c3cc(Cl)cnc3C(F)F)CC1)C(=O)C2(O)c1ccccc1F` (some centres unmarked) [Example 105, 5-chloro-2-(difluoromethyl)-N-((1r,4r)-4-((3-(2-fluorophenyl)-3-hydroxy-6-methoxy-2-oxoindolin-1-yl)methyl)cyclohexyl) nicotinamide] was run?
**A.** < 200 nM
